Tests used:
[1] = with metformin; cited from earlier work
[2] = design: method as in PMID 27561659; settings: following oral administration of SOR; cited from earlier work
[3] = Pharmacokinetic interaction study between SOR and DAPA in rats (oral gavage, plasma by UPLC-MS/MS);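 also: parameters derived by non-compartmental analysis of plasma concentration–time data, with analyte levels measured by UPLC-MS/MS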
Experimental: Analytes were quantified using Ultra-Performance Liquid Chromatography-Tandem Mass Spectrometry (UPLC-MS/MS) which consisted of an LC-30A ultra-performance liquid chromatography (Shimadzu, Kyoto, Japan) and Sciex Triple Quad 5500 tandem triple quadrupole mass spectrometer (AB Sciex, Framingham, MA, USA). Chromatographic separation was performed using an XSelect HSS T3 column (2.1 mm × 100 mm, 2.5 μm, Waters, Milford, MA, USA) at 40 °C by gradient elution. The mobile phase consisted of water with 0.1% formic acid and 5 mM ammonium acetate (phase A) and acetonitrile (phase B), and the gradient elution procedure was as follows: 0–0.5 min, 60–90% B; 0.5–3 min, 90% B; 3–3.1 min, 90–60% B; and 3.1–4 min, 60% B. The injection volume was 5 μL.
A volume of 25 µL plasma samples, 2.5 µL IS mixed working solution, and 150 μL methyl tertbutyl ether was added, then vortex-mixed for 1 min. The mixture was centrifuged at 12,000× g for 10 min. The organic phase was transferred to a new centrifuged tube and evaporated to dryness under a stream of nitrogen at room temperature. The dried samples were redissolved with 100 μL of 50% acetonitrile and briefly vortexed for 1 min, then 5 μL was injected into the UPLC-MS/MS for analysis.
Adult male Sprague-Dawley (SD) rats weighing 230 ± 30 g were provided by Beijing Weitong Lihua Experimental Animal Technology Co., Ltd. (Beijing, China). The license number is SCXK (Beijing) 2016–0011. All experimental procedures for this study were reviewed and approved by the Animal Ethics Committee of Hebei General Hospital (Shijiazhuang, China) (No. 2022072). The rats were adapted to the standard laboratory conditions (12 h dark–light cycle, temperature at approximately 23 ± 2 °C, relative humidity of 50 ± 10%) for a week. All the rats were given access to water freely, while the diet was prohibited for 12 h before administration.
Twenty-four healthy rats were randomly divided into four groups (n = 6 in each group). […] Blood samples were then centrifuged at 3500× g for 10 min at 4 °C, and the supernatant was transferred to another centrifuged tube, then stored in a −80 °C freezer until analysis.
DAS 2.1.1 Software (Mathematical Pharmacology Professional Committee of China, Shanghai, China) was used to calculate pharmacokinetic parameters with non-compartmental analysis. The pharmacokinetic analysis included AUC (area under the concentration–time curve), Cmax (maximum plasma concentration), Tmax (time to maximum plasma concentration), t1/2 (time required to eliminate half of plasma drug concentration), CLz/F (clearance of drug plasma volume per time unit), Vz/F (apparent volume of distribution), and MRT (mean residence time). SPSS 25.0 statistical software (SPSS Inc., Chicago, IL, USA) was used to statistically analyze the above-mentioned pharmacokinetic parameters. Statistical comparisons of the experimental and control groups were conducted using a nonparametric rank-sum test or t-test, depending on the data type; p < 0.05 was considered statistically significant.

[4] = test system: human UGT enzymes; design: method as in PMID 28065859; settings: in vitro studies; cited from earlier work
[5] = Stability of QC samples in rat plasma under different storage and processing conditions; assay type: physicochemical; settings: for Accuracy (RE%) / Mean ± SD concentration found: rat plasma, n = 6
Experimental: The stability of QC samples in rat plasma was tested in six replicates at three concentration levels exposed to different storage and processing conditions: autosampler for 6 h after processing, room temperature for 4 h, −80 °C for 30 days, three freeze–thaw cycles (−80 °C to room temperature).

[6] = test system: Ugt1a7 mRNA; assay: qRT-PCR of Ugt1a7 mRNA in liver and intestines of rats after multiple doses; assay type: in vivo; settings: multiple doses of SOR (100 mg/kg, seven days)
Experimental: The qRT-PCR analysis was used to measure mRNA levels of Ugt1a7 in the liver and intestines of rats. Total RNA was isolated from frozen liver and intestine samples using the TRNzol Universal as per the manufacturer’s instructions. A Bio Tek Epoch (Bio Tek Instruments, Inc., Winooski, VT, USA) was used to quantify the concentration and purity of the total RNA based on the ratio of the absorbance between 260 and 280 nm. RNA samples of 1 μg of were converted to complementary (cDNA) using the FastKing RT Kit. The real-time PCR assays were performed using a two-step amplification method according to the manufacturer’s recommendations in a SLAN-96S Real-Time PCR system (Shanghai Hongshi Medical Technology Co., Ltd. Shanghai, China). The PCR cycling conditions were as follows: 95 °C for 15 min, followed by 40 cycles of 95 °C for 10 s and 60 °C for 32 s. The sequences of primers are listed in Table 6. β-actin was used as an internal control.

[7] = design: method as in earlier work; settings: co-administration of neomycin; cited from earlier work
[8] = SOR 100 mg/kg oral, alone, n = 6
[9] = with multiple doses of DAPA vs control group (SOR alone)
[10] = Autosampler for 6 h, nominal 10 ng/mL
[11] = Autosampler for 6 h, nominal 1500 ng/mL
[12] = Autosampler for 6 h, nominal 3750 ng/mL
[13] = Freeze–thaw stability for three times, nominal 10 ng/mL
[14] = Freeze–thaw stability for three times, nominal 1500 ng/mL
[15] = Freeze–thaw stability for three times, nominal 3750 ng/mL
[16] = Room temperature for 4 h, nominal 10 ng/mL
[17] = Room temperature for 4 h, nominal 1500 ng/mL
[18] = Room temperature for 4 h, nominal 3750 ng/mL
[19] = −80 °C for 30 days, nominal 10 ng/mL
[20] = −80 °C for 30 days, nominal 1500 ng/mL
[21] = −80 °C for 30 days, nominal 3750 ng/mL

SMILES: CNC(=O)c1cc(Oc2ccc(NC(=O)Nc3ccc(Cl)c(C(F)(F)F)c3)cc2)ccn1 [SOR, Sorafenib]
- change of exposure to SOR [1]: halved
- time at which maximum plasma concentrations are reached [2]: approximately 3 h
- AUC(0-t) [3, 8]: 62,701.33 ± 16,697.65 μg/L × h
- Cmax [3, 8]: 1.54787 ± 0.13694 µg/mL
- shape of pharmacokinetic curve of SOR ([3]; after 72 h of SOR gavage): second absorption peak
- AUC(0-inf) ([3]; male, Sprague-Dawley, rat, plasma, po, 100 mg/kg, AUC0–∞, SOR 100 mg/kg oral, alone, n = 6): 63.7 µg·h/mL
- CL/F ([3]; male, Sprague-Dawley, rat, plasma, po, 100 mg/kg, CLz/F, SOR 100 mg/kg oral, alone, n = 6): 1.69 L/h/kg
- MRT last ([3]; male, Sprague-Dawley, rat, plasma, po, 100 mg/kg, MRT0-t, SOR 100 mg/kg oral, alone, n = 6): 47.1 ± 9.48 h
- MRT inf ([3]; male, Sprague-Dawley, rat, plasma, po, 100 mg/kg, MRT0–∞, SOR 100 mg/kg oral, alone, n = 6): 48.7 ± 10.5 h
- Tmax ([3]; male, Sprague-Dawley, rat, plasma, po, 100 mg/kg, Tmax, SOR 100 mg/kg oral, alone, n = 6): 7.5 ± 0.55 h
- Vd/F ([3]; male, Sprague-Dawley, rat, plasma, po, 100 mg/kg, Vz/F, SOR 100 mg/kg oral, alone, n = 6): 37.4 ± 9.78 L/kg
- half-life ([3]; male, Sprague-Dawley, rat, plasma, po, 100 mg/kg, t1/2z, SOR 100 mg/kg oral, alone, n = 6): 17.5 ± 5.65 h
- change of t1/2z, MRT0–t and MRT0–∞ of SOR between the groups ([3]; with multiple doses of DAPA vs SOR alone): no statistically significant changes
- decrease of AUC0–t of SOR [3, 9]: 50.5%
- decrease of AUC0–∞ of SOR [3, 9]: 46.2%
- decrease of Cmax of SOR [3, 9]: 41.6%
- inhibition of human UGT enzymes [4]: one of the most powerful inhibitors
- Accuracy (RE%) [5, 10]: 0.9%
- Mean ± SD concentration found [5, 10]: 10.09 ± 0.53 ng/mL
- Accuracy (RE%) [5, 11]: 2.6%
- Mean ± SD concentration found [5, 11]: 1538.33 ± 36.56 ng/mL
- Accuracy (RE%) [5, 12]: −0.9%
- Mean ± SD concentration found [5, 12]: 3716.67 ± 66.23 ng/mL
- Accuracy (RE%) [5, 13]: −1.7%
- Mean ± SD concentration found [5, 13]: 9.84 ± 0.34 ng/mL
- Accuracy (RE%) [5, 14]: 3.3%
- Mean ± SD concentration found [5, 14]: 1550.00 ± 12.65 ng/mL
- Accuracy (RE%) [5, 15]: −4.0%
- Mean ± SD concentration found [5, 15]: 3601.67 ± 164.00 ng/mL
- Accuracy (RE%) [5, 16]: 6.8%
- Mean ± SD concentration found [5, 16]: 10.68 ± 0.55 ng/mL
- Accuracy (RE%) [5, 17]: −3.4%
- Mean ± SD concentration found [5, 17]: 1448.33 ± 18.35 ng/mL
- Accuracy (RE%) [5, 18]: −5.8%
- Mean ± SD concentration found [5, 18]: 3533.33 ± 66.23 ng/mL
- stability in rat plasma ([5]; autosampler for 6 h, room temperature for 4 h, −80 °C for 30 days, three cycles of freezing and thawing (−80 °C to room temperature)): stable
- Accuracy (RE%) [5, 19]: 2.0%
- Mean ± SD concentration found [5, 19]: 10.20 ± 0.39 ng/mL
- Accuracy (RE%) [5, 20]: 2.2%
- Mean ± SD concentration found [5, 20]: 1533 ± 40.33 ng/mL
- Accuracy (RE%) [5, 21]: −4.2%
- Mean ± SD concentration found [5, 21]: 3593.33 ± 142.22 ng/mL
- downregulation of mRNA expression of Ugt1a7 in the intestines ([6]; rat intestines): ~32.09%
- downregulation of mRNA expression of Ugt1a7 in the liver ([6]; rat liver): ~32.50%
- decrease of SOR exposure [7]: 54%

From PMC9571628 (Molecules, 2022)
